“And” between values parts separate entries of the source, which are not always exact repeats. Identical values can stand only once.
Assays:
[1] = 101 kPa, Liquid
[2] = xn = mol fraction of the nth substance listed; settings: 101 kPa, Liquid

CCCCCCCCCCC [undecane]
[1]
Settings	mass density [kg/m3]	viscosity [mPa·s]
293.15 K	740.4	1.199
298.15 K	736.7	1.099
303.15 K	733	1.022
313.15 K	725.6	0.878

CCCCCCCCCCCCCC [tetradecane] + C1C[C@@H]2[C@H]3CC[C@H](C3)[C@@H]2C1
[2], x1 = 1
Settings	mass density [kg/m3]	viscosity [mPa·s]
293.15 K	762.9	2.346
298.15 K	759.2	2.107
303.15 K	755.7	1.897
313.15 K	748.6	1.594

CCCCCCCCCCC [undecane] + C1C[C@@H]2[C@H]3CC[C@H](C3)[C@@H]2C1
[2], x1 = 1
Settings	mass density [kg/m3]	viscosity [mPa·s]
293.15 K	740.4	1.199
298.15 K	736.7	1.099
303.15 K	733	1.022
313.15 K	725.6	0.878

C1C[C@@H]2[C@H]3CC[C@H](C3)[C@@H]2C1 [exo-tetrahydrodicyclopentadiene] + CCCCCCCCCCCCCC
[2]
Settings	mass density, 293.15 K [kg/m3]	mass density, 298.15 K [kg/m3]	mass density, 303.15 K [kg/m3]	mass density, 313.15 K [kg/m3]	viscosity, 293.15 K [mPa·s]	viscosity, 298.15 K [mPa·s]	viscosity, 303.15 K [mPa·s]	viscosity, 313.15 K [mPa·s]
x2 = 0	935.3	931.4	927.5	919.6	3.077	2.784	2.525	2.112
x2 = 0.0703	914.6	910.8	906.9	899.2	2.961	2.679	2.429	2.034
x2 = 0.1451	894.8	891	887.1	879.5	2.857	2.582	2.343	1.958
x2 = 0.2274	875.5	871.7	868	860.4	2.766	2.496	2.259	1.888
x2 = 0.2692	866.5	862.7	859	851.4	2.724	2.456	2.223	1.857
x2 = 0.4088	839.5	835.8	832.1	824.7	2.609	2.35	2.125	1.777
x2 = 0.5067	823.2	819.5	815.9	808.5	2.544	2.291	2.072	1.734
x2 = 0.616	807	803.4	799.8	792.5	2.487	2.243	2.028	1.698
x2 = 0.7324	791.7	788.2	784.6	777.4	2.438	2.197	1.983	1.663
x2 = 0.8606	776.9	773.4	769.8	762.7	2.39	2.151	1.94	1.629

C1C[C@@H]2[C@H]3CC[C@H](C3)[C@@H]2C1 [exo-tetrahydrodicyclopentadiene]
[1]
Settings	mass density [kg/m3]	viscosity
293.15 K	935.3	3.076 mPa·s and 3.077 mPa·s
298.15 K	931.4	2.784 mPa·s
303.15 K	927.5	2.525 mPa·s
313.15 K	919.6	2.112 mPa·s

C1C[C@@H]2[C@H]3CC[C@H](C3)[C@@H]2C1 [exo-tetrahydrodicyclopentadiene] + CCCCCCCCCCC
[2]
Settings	mass density, 293.15 K [kg/m3]	mass density, 298.15 K [kg/m3]	mass density, 303.15 K [kg/m3]	mass density, 313.15 K [kg/m3]	viscosity, 293.15 K [mPa·s]	viscosity, 298.15 K [mPa·s]	viscosity, 303.15 K [mPa·s]	viscosity, 313.15 K [mPa·s]
x2 = 0	935.3	931.4	927.5	919.6	3.076	2.784	2.525	2.112
x2 = 0.0881	911.7	907.8	903.9	896.1	2.697	2.439	2.228	1.856
x2 = 0.1777	889.3	885.4	881.6	873.8	2.39	2.162	1.982	1.662
x2 = 0.2711	867.6	863.7	859.9	852.1	2.135	1.937	1.78	1.499
x2 = 0.3669	846.8	843	839.2	831.5	1.921	1.751	1.615	1.362
x2 = 0.4654	827	823.1	819.3	811.7	1.747	1.594	1.47	1.246
x2 = 0.5658	808.2	804.4	800.6	793	1.608	1.47	1.359	1.158
x2 = 0.6685	790.3	786.6	782.8	775.2	1.483	1.358	1.256	1.074
x2 = 0.778	772.6	768.9	765.2	757.7	1.373	1.259	1.167	1
x2 = 0.8855	756.5	752.7	749	741.6	1.284	1.177	1.093	0.941

CCCCCCCCCCCCCC [tetradecane]
[1]
Settings	mass density [kg/m3]	viscosity [mPa·s]
293.15 K	762.9	2.346
298.15 K	759.2	2.107
303.15 K	755.7	1.897
313.15 K	748.6	1.594

— the NIST ThermoML archive (doi:10.1021/je100313a)
